Where a name gives a salt, the structure may show the parent alone.
Legend:
Type in all cases: biochemical
[1] = target: T1, human LSD1(171-852) (Homo sapiens, UniProt O60341); test: Measurement of LSD1 inhibitory activity (time-resolved fluorescence, biotin-histone H3 mono methylated K4 peptide); details: read-out: LSD1 IC50 value
T1 construct: to give hLSD1(171-852) purified product; made in house; host or cells: Escherichia coli C43(DE3) pLysS

[2] = target: T2, MAO-A (Homo sapiens, UniProt P21397); test: Measurement of MAO-A inhibitory activity (MAO-Glo Assay)
T2 construct: purchased Sigma-Aldrich Co. LLC
T2 sequence (P21397 1-527): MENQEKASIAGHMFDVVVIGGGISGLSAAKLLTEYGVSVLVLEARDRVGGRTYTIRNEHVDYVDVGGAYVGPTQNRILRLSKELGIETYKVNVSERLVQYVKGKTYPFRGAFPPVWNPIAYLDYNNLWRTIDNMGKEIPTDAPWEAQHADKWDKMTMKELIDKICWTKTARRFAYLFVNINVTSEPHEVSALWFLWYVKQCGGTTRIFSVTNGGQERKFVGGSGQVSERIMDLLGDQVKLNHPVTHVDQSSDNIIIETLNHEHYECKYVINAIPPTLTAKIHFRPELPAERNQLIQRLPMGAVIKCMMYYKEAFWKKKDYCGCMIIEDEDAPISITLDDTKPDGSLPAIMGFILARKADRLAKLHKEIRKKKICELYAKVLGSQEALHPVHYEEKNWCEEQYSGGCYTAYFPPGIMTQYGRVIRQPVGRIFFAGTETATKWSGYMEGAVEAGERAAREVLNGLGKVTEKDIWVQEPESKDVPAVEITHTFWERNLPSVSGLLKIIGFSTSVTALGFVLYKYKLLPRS
Procedure, shortened: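 Luminescent MAO-Glo read-out: % inhibition computed from counts relative to enzyme-only control and enzyme-free blank. Compound and 400 ng MAO-A in HEPES pH 7.5 with 5% glycerol stood 10 min at room temperature before MAO substrate (160 μM stock) started a 60 min reaction.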

[3] = target: T3, MAO-B (Homo sapiens, UniProt P27338); test: Measurement of MAO-B inhibitory activity (MAO-Glo Assay)
T3 construct: purchased Sigma-Aldrich Co. LLC
T3 sequence (P27338 1-520): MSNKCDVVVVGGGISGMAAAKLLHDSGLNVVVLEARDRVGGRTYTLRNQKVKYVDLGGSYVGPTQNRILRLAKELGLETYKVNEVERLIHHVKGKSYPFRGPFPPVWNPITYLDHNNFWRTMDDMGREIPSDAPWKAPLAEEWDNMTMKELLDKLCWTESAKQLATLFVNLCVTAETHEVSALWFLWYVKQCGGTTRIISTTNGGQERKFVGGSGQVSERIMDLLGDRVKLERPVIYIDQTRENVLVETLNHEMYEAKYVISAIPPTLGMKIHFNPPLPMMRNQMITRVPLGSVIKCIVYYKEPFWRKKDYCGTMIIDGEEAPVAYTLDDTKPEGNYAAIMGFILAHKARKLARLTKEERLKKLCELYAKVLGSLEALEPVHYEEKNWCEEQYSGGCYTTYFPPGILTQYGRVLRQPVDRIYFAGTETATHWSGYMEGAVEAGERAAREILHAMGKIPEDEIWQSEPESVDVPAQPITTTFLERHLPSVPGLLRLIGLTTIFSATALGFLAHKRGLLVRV
Procedure, shortened: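 Percent inhibition was calculated from luciferin-based luminescence, corrected with a blank lacking enzyme and a control lacking compound. The reaction ran 60 min at room temperature after adding MAO substrate (16 µM as added). This followed a 10 min compound–enzyme preincubation in HEPES pH 7.5 buffer.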

## O=C(Nc1ccc([C@@H]2C[C@H]2NC2CCc3ccccc32)cc1)c1ccccc1 (relative stereo) [Example 20, N-{4-[trans-2-(2,3-dihydro-1H-inden-1-ylamino)cyclo-propyl]phenyl}-benzamide]
[1]
  IC50: < 100 nM
[2]
  IC50: > 10 µM
[3]
  IC50: > 10 µM

## CN1CCN(c2ccc(C(=O)Nc3ccc([C@@H]4C[C@H]4NCC4CC4)cc3)cc2)CC1 (relative stereo) [Example 130, N-(4-{trans-2-[(cyclopropyl-methyl)amino]cyclo-propyl}phenyl)-4-(4-methylpiperazin-1-yl)benzamide]
[1]
  IC50: < 100 nM
[2]
  IC50: > 10 µM
[3]
  IC50: > 10 µM

## O=C(Nc1ccc([C@@H]2C[C@H]2NCc2ccccc2)cc1)c1ccc(-c2ccccc2)cc1 (relative stereo) [Example 35, N-{4-[trans-2-(benzylamino)cyclopropyl]phenyl}biphenyl-4-carboxamide]
[1]
  IC50: 130 nM
[2]
  IC50: 1.3 µM
[3]
  IC50: > 10 µM

## COc1ccc(CN[C@@H]2C[C@H]2c2ccc(NC(=O)c3ccc(-c4ccccc4)cc3)cc2)cc1OC (relative stereo) [Example 46, N-(4-{trans-2-[(3,4-dimethoxy-benzyl)amino]cyclo-propyl}phenyl)-biphenyl-4-carboxamide]
[1]
  IC50: < 100 nM
[2]
  IC50: > 10 µM
[3]
  IC50: > 10 µM

## O=C(Nc1ccc([C@@H]2C[C@H]2NCC2CC2)cc1)c1ccc2cc[nH]c2c1 (relative stereo) [Example 115, N-(4-{trans-2-[(cyclopropylmethyl)amino]cyclopropyl}-phenyl)-1H-indole-6-carboxamide]
[1]
  IC50: < 100 nM
[2]
  IC50: > 10 µM
[3]
  IC50: > 10 µM

## CN1CCC(N[C@@H]2C[C@H]2c2ccc(N(C)C(=O)c3cccc(C(F)(F)F)c3)cc2)CC1 (relative stereo) [Example 150, N-methyl-N-(4-{trans-2-[(1-methylpiperidin-4-yl)amino]cyclopropyl}phenyl)-3-(trifluoromethyl)benzamide dihydrochloride]
[1]
  IC50: < 100 nM
[2]
  IC50: > 10 µM
[3]
  IC50: > 10 µM

## O=C(Nc1ccc([C@@H]2C[C@H]2NCC2CC2)cc1)c1ccc(-c2ncccn2)cc1 (relative stereo) [Example 138, N-(4-{trans-2-[(cyclopropylmethyl)amino]cyclopropyl}phenyl)-4-(pyrimidin-2-yl)benzamide hydrochloride]
[1]
  IC50: < 100 nM
[2]
  IC50: > 10 µM
[3]
  IC50: > 10 µM

## O=C(Nc1ccc([C@@H]2C[C@H]2NCC2CC2)cc1)c1coc(-c2ccccc2)n1 (relative stereo) [Example 103, N-(4-{trans-2-[(cyclopropylmethyl)-amino]cyclopropyl}-phenyl)-2-phenyl-1,3-oxazole-4-carboxamide]
[1]
  IC50: < 100 nM
[2]
  IC50: > 10 µM
[3]
  IC50: > 10 µM

## O=C(Nc1ccc([C@@H]2C[C@H]2NCC2CC2)cc1)c1ccc2[nH]ccc2c1 (relative stereo) [Example 114, N-(4-{trans-2-[(cyclopropylmethyl)amino]cyclopropyl}phenyl)-1H-indole-5-carboxamide trifluoroacetate]
[1]
  IC50: < 100 nM
[2]
  IC50: > 10 µM
[3]
  IC50: > 10 µM

## Cc1ccc(C(=O)Nc2ccc([C@@H]3C[C@H]3NCC3CC3)cc2)cc1 (relative stereo) [Example 68, N-(4-{trans-2-[(cyclopropylmethyl)amino]cyclopropyl}phenyl)-4-methylbenzamide hydrochloride]
[1]
  IC50: < 100 nM
[2]
  IC50: > 10 µM
[3]
  IC50: > 10 µM

## O=C(Nc1ccc([C@@H]2C[C@H]2NCc2ccccc2)cc1)c1cccc(CCc2ccccc2)c1 (relative stereo) [Example 34, N-{4-[trans-2-(benzylamino)cyclopropyl]phenyl}-3-(2-phenylethyl)benzamide]
[1]
  IC50: 190 nM
[2]
  IC50: > 10 µM
[3]
  IC50: > 10 µM

## O=C(Nc1ccc([C@@H]2C[C@H]2NCC2CC2)cc1)c1cc(-c2ccccc2)[nH]n1 (relative stereo) [Example 126, N-(4-{trans-2-[(cyclopropyl-methyl)amino]cyclo-propyl}phenyl)-5-phenyl-1H-pyrazole-3-carboxamide]
[1]
  IC50: < 100 nM
[2]
  IC50: > 10 µM
[3]
  IC50: > 10 µM

## O=C(N[C@H](Cc1ccccc1)C(=O)Nc1ccc(C2CC2NCc2ccccc2)cc1)OCc1ccccc1 (stereo in doubt) [Example 58, N-{4-[trans-2-(benzylamino)cyclopropyl]phenyl}-Nα-[(benzyloxy)carbonyl]-D-phenylalaninamide hydrochloride]
[1]
  IC50: 410 nM
[2]
  IC50: > 10 µM
[3]
  IC50: > 10 µM

## O=C(Nc1ccc([C@@H]2C[C@H]2NC2CCN(CC(F)(F)F)CC2)cc1)c1ccc(-c2ccccc2)cc1 (relative stereo) [Example 63, N-{4-[trans-2-{[1-(2,2,2-trifluoroethyl)piperidin-4-yl]amino}cyclopropyl]phenyl}biphenyl-4-carboxamide hydrochloride]
[1]
  IC50: < 100 nM
[2]
  IC50: > 10 µM
[3]
  IC50: > 10 µM

## Cc1cccc(C(=O)Nc2ccc([C@@H]3C[C@H]3NCc3ccccc3)cc2)c1 (relative stereo) [Example 7, N-{4-[trans-2-(benzylamino)cyclopropyl]phenyl}-3-methylbenzamide]
[1]
  IC50: < 100 nM
[2]
  IC50: 5.6 µM
[3]
  IC50: > 10 µM

## Cc1ccc(C(=O)Nc2ccc([C@@H]3C[C@H]3NCC3CC3)cc2)cc1C (relative stereo) [Example 105, N-(4-{trans-2-[(cyclopropylmethyl)amino]cyclopropyl}phenyl)-3,4-dimethylbenzamide hydrochloride]
[1]
  IC50: < 100 nM
[2]
  IC50: > 10 µM
[3]
  IC50: > 10 µM

## O=C(Nc1ccc([C@@H]2C[C@H]2NCC2CC2)cc1)c1cccc(Cn2ccnc2)c1 (relative stereo) [Example 146, N-(4-{trans-2-[(cyclopropylmethyl)amino]cyclopropyl}phenyl)-3-(1H-imidazol-1-ylmethyl)benzamide hydrochloride]
[1]
  IC50: < 100 nM
[2]
  IC50: 6.7 µM
[3]
  IC50: > 10 µM

## O=C(Nc1ccc([C@@H]2C[C@H]2NC2CCCCCCC2)cc1)c1ccc(-c2ccccc2)cc1 (relative stereo) [Example 45, N-{4-[trans-2-(cyclooctyl-amino)cyclo-propyl]phenyl}-biphenyl-4-carboxamide]
[1]
  IC50: 290 nM
[2]
  IC50: > 10 µM
[3]
  IC50: > 10 µM

## C=CCOC(=O)N1CCC(N[C@@H]2C[C@H]2c2ccc(NC(=O)c3ccc(-c4ccccc4)cc3)cc2)CC1 (relative stereo) [Example 55, allyl 4-{[trans-2-{4-[(biphenyl-4-yl-carbonyl)amino]-phenyl}cyclo-propyl]amino}-piperidine-1-carboxylate]
[1]
  IC50: 130 nM
[2]
  IC50: > 10 µM
[3]
  IC50: > 10 µM

## CC(C)(C)c1ccc(-c2ccc(C(=O)Nc3ccc([C@@H]4C[C@H]4NCC4CC4)cc3)cc2)cc1 (relative stereo) [Example 120, 4′-tert-butyl-N-(4-{trans-2-[(cyclopropylmethyl)amino]cyclopropyl}-phenyl)biphenyl-4-carboxamide]
[1]
  IC50: 1600 nM
[2]
  IC50: > 10 µM
[3]
  IC50: > 10 µM

## O=C(Nc1ccc([C@@H]2C[C@H]2NCc2cc3cccnc3s2)cc1)c1cccc(C(F)(F)F)c1 (relative stereo) [Example 161, N-(4-{trans-2-[(thieno[2,3-b]pyridin-2-ylmethyl)amino]cyclopropyl}phenyl)-3-(trifluoromethyl)benzamide hydrochloride]
[1]
  IC50: < 100 nM
[2]
  IC50: 4.1 µM
[3]
  IC50: > 10 µM
